Laboratory results from publication PMC10953043, “Fluorogenic Granzyme A Substrates Enable Real‐Time Imaging of Adaptive Immune Cell Activity” (Angewandte Chemie (Weinheim an Der Bergstrasse, Germany), 2023).

Molecular target: T1, human GzmA (hGzmA), active recombinant (Homo sapiens, UniProt P12544)
T1 construct: active recombinant enzyme (not the pro-form), dimeric
T1 sequence (P12544 29-262): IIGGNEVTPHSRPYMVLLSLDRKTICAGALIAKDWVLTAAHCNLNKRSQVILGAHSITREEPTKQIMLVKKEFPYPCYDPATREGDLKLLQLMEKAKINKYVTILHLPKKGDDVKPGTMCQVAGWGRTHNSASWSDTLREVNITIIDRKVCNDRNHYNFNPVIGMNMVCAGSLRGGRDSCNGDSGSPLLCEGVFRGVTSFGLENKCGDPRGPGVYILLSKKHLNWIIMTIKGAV
Experiment: fluorogenic assay with compound […] as substrate
Assay type: biochemical
Settings: 100 μM inhibitor, 20 μM compound 9, 20 nM hGzmA, Tris buffer pH 8; covalent

% decrease of the fluorescence signal: > 90%
SMILES: O=c1oc(Cl)c(Cl)c2ccccc12 [3,4‐dichloroisocoumarin]
